Test results reported in US12264163B2, “Compounds and methods for treating fibrotic pathologies” (Mayo Foundation for Medical Education and Research, priority 2019, dated 2025).

Assays:
[1] = tested on: IPF patient derived fibroblasts; test: Traction force microscopy of IPF patient-derived fibroblasts; type: cell-based, human; conditions: IPF fibroblasts on 6.4 kPa matrices
Experimental: Traction Force Microscopy: Traction analysis was conducted as previously described. […] IPF patient derived fibroblasts were plated on the gels overnight and treated as indicated before traction force measurements. Images of gel surface-conjugated fluorescent beads were acquired for each cell before and after trypsinization using a Nikon ECLIPSE Ti microscope at ×10 magnification. Traction forces were estimated by measuring bead displacement fields and computing corresponding traction fields using TractionsForAll (freely distributed program that calculates 2-D tractions exerted by an adherent cell on its substrate).

YAP/TAZ = YAP/TAZ nuclear localization in IPF patient-derived lung fibroblasts treated with dopaminergic agonists; type: cell-based, human; conditions: 10 μM, 2 hours
How it was run: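 Fibroblasts from IPF patients (N=4 patient samples) were exposed to dopaminergic agonists at 10 μM for 2 h before fixation. Cells were immunostained for YAP/TAZ with DAPI counterstain and imaged at 4×. Percent nuclear YAP/TAZ localization was quantified by automated image analysis.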

normal healthy mice = conditions: mouse, in vivo
Experimental: Bleomycin model of pulmonary fibrosis was used to test the efficacy of DHX in vivo in experimental fibrosis. Mice were administered bleomycin intratracheally at Day 0. On Day 10 injury and inflammation typically subside and fibrosis is ongoing. At Day 10 mice were randomized into two groups, one receiving DHX (5 mg/kg once daily i.n.) and the other, vehicle control. […] At day 24 the mice were sacrificed and compared using histology, hydroxyproline and qPCR. […] To assess whether DHX adversely effects lung remodeling in the absence of fibrosis, we also exposed control mice to DHX following an identical time course and route of exposure.

NIH-3T3 cells = test: Matrix remodeling measured by atomic force microscopy; type: cell-based, mouse; conditions: TGFβ + ascorbic acid 72 hours, then 10 μM DHX 72 hours
Experimental: NIH-3T3 cells plated onto gelatin-coated tissue culture plates stimulated to deposit matrix with 2 ng/mL TGFβ and 20 μM ascorbic acid for 72 hours prior to AFM microindentation analysis to measure stiffness (elastic modulus). The same dishes were then treated +/−10 μM DHX in the same media for another 72 hours and AFM analysis. The matrices were decellularized and passage 3 NHLFs were plated onto the matrices; after 24 hours RNA was collected and expression of profibrotic genes was analyzed. AFM analysis N=2. 75 indentation measurements were made for each plate. The box and whisker plots show min to max, quartile, and mean from one representative experiment (****p<0.0001 vs. 0.1% DMSO vehicle control) (++p<0.01, +p<0.05 vs. the same culture plate after the first 72 hour incubation). […]
Matrix Remodeling Measured by Atomic Force Microscopy: NIH-3T3 cells were plated to confluence onto gelatin coated (Cell Biologics) AFM compatible tissue culture dishes (Willco) in DMEM containing 10% FBS. […] Microindentations were performed using a 2.5 μm radius sphere-tipped probe (Novascan, IA, USA) with a spring constant determined at about 100 pN/nm by thermal fluctuation method. For each dish, 3 different areas were analyzed. […] The Young's modulus E was determined by the fitting of force curve by Hertz model using NanoScope Analysis software (Bruker) and considering Poisson's ratio of 0.5. […]

D1 receptor = conditions: cited from earlier work

## Oc1cc2c(cc1O)[C@H]1c3ccccc3CN[C@@H]1CC2 (racemic) [Dihydrexidine]
[1]
  contractile forces (traction force microscopy): significantly and dose-dependently reduced the contractile forces
YAP/TAZ; IPF-1 patient fibroblasts
  Nuclear localization (% of total cells): 13.22 % of total cells
YAP/TAZ; IPF-2 patient fibroblasts
  Nuclear localization (% of total cells): 21.79 % of total cells
YAP/TAZ; IPF-3 patient fibroblasts
  Nuclear localization (% of total cells): 27.63 % of total cells
YAP/TAZ; IPF-4 patient fibroblasts
  Nuclear localization (% of total cells): 21.08 % of total cells
Normal healthy mice
  body weight: did not alter body weight
  expression of Ctgf, Col1a1, Acta2, and Fn1: did not alter expression of Ctgf, Col1a1, Acta2, and Fn1
  lung collagen deposition: did not alter lung collagen deposition
  lung histology: did not alter lung histology
NIH-3T3 cells
  stiffness of cells and cell-derived matrix (AFM): significantly reduced the observed stiffness
D1 receptor
  efficacy at elevating cAMP (D1 receptor): full magnitude cAMP response
